Assay results as given in PMC4793301, “From chlorite dismutase towards HemQ–the role of the proximal H-bonding network in haeme binding” (Bioscience Reports, 2016).

Experiments:
[1] = biological target: T1, NdCld (chlorite dismutase from 'Candidatus Nitrospira defluvii') (Nitrospira defluvii, UniProt B3U4H7); assay: DSC, absolute Tm with ligand; assay type: binding; set-up: gene cld; TEV-cleavable N-terminal Strep-II tag, modified pET-21b(+), E. coli Tuner (DE3) with hemin added; haeme b pentamer; conditions: 50 mM MES pH 5.5
T1 sequence (B3U4H7 27-264): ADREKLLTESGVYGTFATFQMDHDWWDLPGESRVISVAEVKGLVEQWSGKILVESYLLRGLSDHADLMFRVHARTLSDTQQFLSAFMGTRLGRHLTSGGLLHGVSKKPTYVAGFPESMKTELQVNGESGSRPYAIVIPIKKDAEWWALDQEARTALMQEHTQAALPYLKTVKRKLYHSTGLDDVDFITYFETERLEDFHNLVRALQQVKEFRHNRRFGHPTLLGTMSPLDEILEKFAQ

[2] = biological target: T1, NdCld (chlorite dismutase from 'Candidatus Nitrospira defluvii'); assay: UV-vis titration, Soret band […] nm; assay type: binding; set-up: gene cld; TEV-cleavable N-terminal Strep-II tag, modified pET-21b(+), E. coli Tuner (DE3) with hemin added; haeme b pentamer
[3] = biological target: NdCld wild-type; assay: Titration of SCN− and F− to NdCld wild-type, UV–vis, dissociation constant; assay type: binding, Candidatus Nitrospira defluvii; conditions: pH 5.5, 25°C
Method: SCN^− and F^− were titrated to NdCld wild-type for the determination of the dissociation constant (KD). The UV–visible electronic absorption spectrum of wild-type NdCld is altered upon binding of SCN^− or F^− if the respective ligand acts as a sixth ligand to haeme b. Binding of F^− was monitored by the change in absorbance at 612 nm [charge transfer band (CT1)] and binding of SCN^− was followed at 411 nm (Soret band). The measurements were performed using a Zeiss Specord S10 DiodeArray spectrophotometer equipped using a quartz cuvette with a path length of 10 mm under constant stirring at 25°C. Samples of 2 μM concentration in 50 mM MES buffer, pH 5.5, were used. Final ligand concentrations were 120 mM (F^−) and 50 mM (SCN^−).

[4] = biological target: SaHemQ; set-up: method as in PMID 23737523; conditions: read-out: KD of haeme binding; cited from earlier work
[5] = biological target: LmHemQ; set-up: method as in PMID 25602700; conditions: read-out: KD of haeme binding; cited from earlier work
[6] = biological target: BsHemQ; set-up: method as in PMID 20543190; conditions: read-out: KD of haeme binding; cited from earlier work
[7] = biological target: T1, NdCld (chlorite dismutase from 'Candidatus Nitrospira defluvii'); set-up: gene cld; conditions: 200 mM fluoride, 175 μM chlorite, 50 nM enzyme, 50 mM MES pH 5.5, 30 °C
[8] = biological target: T1, NdCld (chlorite dismutase from 'Candidatus Nitrospira defluvii'); assay: biochemical; set-up: gene cld
[9] = test system: NdCld (chlorite dismutase), substrate chlorite; assay: Chlorite degradation, O2 release with Clark-type electrode (steady state); assay type: biochemical, Candidatus Nitrospira defluvii; conditions: 200 mM fluoride, 175 μM chlorite, pH 5.5
Method: Cld-mediated chlorite reduction and concomitant oxygen generation was monitored by measuring the release of O2 using a Clark-type electrode (Oxygraph Plus; Hansatech Instruments). The electrode was inserted into a stirred water bath maintained at 30°C. The electrode was equilibrated to 100% O2 saturation by flushing with O2, further 0% saturation was achieved by bubbling with N2 until a plateau was reached. Reactions were carried out in O2-free 50 mM MES buffer, pH 5.5. […] A high excess of ligands (200 mM F^−, 10 mM SCN^−) was present in the respective measurements. […] Molecular oxygen production rates (μM O2 s^−1) were obtained from the initial linear time traces (initial velocities, v0) for direct comparison.

Compound: N#CS [SCN^−, thiocyanate]
- Tm ([1]; 10 mM thiocyanate, main peak): 94 °C
- Kd [2]: 150 ± 40 µM
- Kd ([3]; SCN− to wild-type protein): 150 ± 40 µM

Compound: C=CC1=C(C)c2cc3[n-]c(cc4[n-]c(cc5nc(cc1n2)C(C)=C5C=C)c(C)c4CCC(=O)O)c(CCC(=O)O)c3C.[Fe+2] [haeme, haeme b]
- Kd [4]: 1 µM
- Kd [5]: 7 to 16 µM
- Kd [6]: 30 to 40 µM

Compound: F [F^−, fluoride]
- v0 remaining [7]: 53%
- Kd [8]: 5900 ± 400 µM
- Tm ([1]; 200 mM fluoride): 102 °C
- v0 of wild-type NdCld remaining relative to ligand free [9]: 53%
- Kd ([3]; F− to wild-type protein): 5900 ± 400 µM
